As a reminder, the EC50 is the concentration that produces a half-maximal response. A low value points to a more potent agent.

Structures can show the parent of a compound that is named as a salt.

From patent publication US7271190B2, “Indazole compounds as β3 adrenoceptor agonist” (Asahi Kasei Pharma Corporation, priority 2001, dated 2007) come the findings set out here.

In series [1] the target is T1, human β3 (Homo sapiens, UniProt P13945).
T1 construct: used as a probe to obtain the full length human β3 gene from a human genomic library; expressed in transfected cells; host or cells: CHO (Chinese hamster ovary) cells, pcDNA3 vector
Put plainly: Human β3-agonist activities (cAMP in transfected CHO cells). It counts as cell-based. Conditions: for EC50: CHO cells expressing human β3, cAMP, 30 minutes; for Emax: CHO, read-out: Intrinsic activity*. As to the method: Human β3-Agonist Activities
Human β3-agonist activities were determined using CHO (Chinese hamster ovary) cells transfected with pcDNA3 (mfd. by Invitrogen) to which human β3 gene had been inserted. Human β3 fragment was first obtained from human adipose tissue cDNA (mfd. by Clonetech) by PCR using the primer of β3 (Krief, et al., J. Clin. Invest., vol. 91, pp. 344-349 (1993)). The human β3 fragment thus obtained was used as a probe to obtain the full length human β3 gene from a human genomic library (mfd. by Clonetech). The above cells were cultured in a Ham F-12 medium supplemented with 10% fetal bovine serum, 400 μg/mL geneticin (Gibco BRL), 100 U/mL penicillin and […] streptomycin. After placing these cells (5×10^5) into a 6-well plate and culturing them for 24 hours, they were allowed to stand on a serum-free Ham F-12 medium for 2 hours. The compound was first dissolved in DMSO, repeatedly diluted by ten times with Ham F-12 supplemented with 1 mM isobutylmethyl-xanthine and 1 mM ascorbic acid to a final concentration of from 10^−5 to 10^−12 M, and then added to the cells. After the cells were cultured for 30 minutes, the medium was removed, followed by addition of 0.5 mL of 1 N NaOH. The medium was allowed to stand for 20 minutes and then 0.5 mL of 1 N acetic acid was added to the medium. The medium was stirred and then centrifuged, followed by quantitating cAMP with cAMP EIA kit (mfd. by Cayman). Isoproterenol was purchased from RBI (Research Biochemicals International).

Series [2] has as its system ddy mice. As to the kind of experiment: Toxicity test, oral, mice. It counts as in vivo. Conditions: orally, 100 mg/kg, 6-week old male ddy mice, eight animals. As to the method:
Each of the present compounds synthesized in Examples 1 and 2 were orally administered to 6-week old male ddy mice (CHARLES RIVER JAPAN) at 100 mg/kg. […] The other compounds, which achieved the same results, were also shown to have a low toxicity.

Setting [3] is: Relative activities (%) as compared with isoproterenol.

T1 sequence (P13945 whole entry): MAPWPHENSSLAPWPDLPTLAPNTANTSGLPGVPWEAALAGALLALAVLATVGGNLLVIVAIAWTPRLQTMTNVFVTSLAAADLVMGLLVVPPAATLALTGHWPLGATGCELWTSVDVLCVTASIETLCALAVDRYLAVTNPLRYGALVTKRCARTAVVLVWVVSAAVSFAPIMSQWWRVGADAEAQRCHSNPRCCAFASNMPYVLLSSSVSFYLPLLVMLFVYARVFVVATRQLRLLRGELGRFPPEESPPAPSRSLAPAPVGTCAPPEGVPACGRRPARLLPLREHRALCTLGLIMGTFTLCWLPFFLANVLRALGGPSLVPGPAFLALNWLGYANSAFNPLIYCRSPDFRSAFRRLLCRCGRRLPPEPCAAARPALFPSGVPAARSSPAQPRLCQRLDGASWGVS

On to `CCOC(=O)CCc1[nH]c2cc(OCCNC[C@H](O)c3ccc(F)c(NS(C)(=O)=O)c3)ccc2c1C` [Example 80, ethyl (R)-3-[6-[2-[2-(4-fluoro-3-methylsulfonylaminophenyl)-2-hydroxyethylamino]ethoxy]-3-methyl-1H-indol-2-yl]propionate], for which the EC50 in series [1] was 2.8 nM. Also, the Emax in series [1] (setting [3]) was found to be 63%.
`Cc1n[nH]c2cc(OCCNC[C@H](O)c3cccc(NS(C)(=O)=O)c3)ccc12` [Example 84, (R)-N-[3-[2-[2-(3-methylindazol-6-yloxy)ethylamino]-1-hydroxyethyl]phenyl]methanesulfonamide hydrochloride] yielded a concentration for a half-maximal effect (EC50) in series [1] of 12 nM. Further, the Emax in series [1] (setting [3]) was found to be 81%.
Taken in the same sequence, the figures for `COc1n[nH]c2cc(OCCNC[C@H](O)c3cccc(NS(C)(=O)=O)c3)ccc12` [Example 86, (R)-N-[3-[2-[2-(3-methoxyindazol-6-yloxy)ethylamino]-1-hydroxyethyl]phenyl]methanesulfonamide] were 26 nM and 64%.
As to `CCOC(=O)CCc1c(C)[nH]c2cc(OCCNC[C@H](O)c3cccc(NS(C)(=O)=O)c3)ccc12` [Example 13, ethyl (R)-3-[6-[2-[2-(3-methylsulfonylamino)phenyl-2-hydroxyethylamino]ethoxy]-2-methyl-1H-indol-3-yl]propionate], the EC50 in series [1] amounted to 23 nM. Also, the Emax in series [1] (setting [3]) amounted to 38%.
Consider `CCOC(=O)CCc1c(CC)[nH]c2cc(OCCNC[C@H](O)c3cccc(NS(C)(=O)=O)c3)ccc12` [Example 20], for which, in series [1], the EC50 amounted to 32 nM. Moreover, the Emax in series [1] (setting [3]) was 55%.
Turning to `Cc1c(-c2cccnc2)[nH]c2cc(OCCNC[C@H](O)c3ccc(F)c(NS(C)(=O)=O)c3)ccc12` [Example 79, (R)-N-[2-fluoro-5-[1-hydroxy-2-[2-(3-methyl-2-pyridin-3-yl-1H-indol-6-yloxy)ethylamino]ethyl]phenyl]methanesulfonamide], in series [1], the EC50 came to 3.4 nM. The Emax in series [1] (setting [3]) amounted to 65%.
`CNS(=O)(=O)c1cc([C@@H](O)CNCCOc2ccc3c(C)n[nH]c3c2)ccc1O` [Example 89, (R)-N-methyl-[5-[2-[2-(3-methylindazol-6-yloxy)ethylamino]-1-hydroxyethyl]-2-hydroxyl]benzenesulfonamide]: the midpoint of the response in series [1], the EC50, lay at 11 nM. Besides, in series [1] (setting [3]), the Emax is 80%.
In the case of `CCOC(=O)c1[nH]c2cc(OCCNC[C@H](O)c3cccc(NS(C)(=O)=O)c3)ccc2c1C` [Example 1, ethyl (R)-6-[2-[2-(3-methylsulfonylamino)phenyl-2-hydroxyethylamino]ethoxy]-3-methyl-1H-indole-2-carboxylate hydrochloride], the EC50 in series [1] is 15 nM. Moreover, in series [1] (setting [3]), the Emax was 97%. Also, the animals found dead result in series [2] was “none of the eight animals were found to be dead”.
In series [1], `Cc1c(C(=O)O)[nH]c2cc(OCCNC[C@H](O)c3cccc(NS(C)(=O)=O)c3)ccc12` [Example 2, (R)-6-[2-[2-(3-methylsulfonylamino)phenyl-2-hydroxyethylamino]ethoxy]-3-methyl-1H-indole-2-carboxylic acid] had an EC50 of 18 nM. In series [1] (setting [3]), the Emax was 124%. Besides, the animals found dead entry in series [2] was “none of the eight animals were found to be dead”.
For `Cc1c(-c2cccnc2)[nH]c2cc(OCCNC[C@H](O)c3cccc(NS(C)(=O)=O)c3)ccc12` [Example 72, (R)-N-[3-[1-hydroxy-2-[2-(3-methyl-2-pyridin-3-yl-1H-indol-6-yloxy)ethylamino]ethyl]phenyl]methanesulfonamide], the EC50 in series [1] turned out to be 2.8 nM. Further, the Emax in series [1] (setting [3]) turned out to be 105%.
Take `CCOC(=O)CCc1[nH]c2cc(OCCNC[C@H](O)c3cccc(NS(C)(=O)=O)c3)ccc2c1C` [Example 82, ethyl (R)-3-[3-methyl-6-[2-[2-(3-methylsulfonylaminophenyl)-2-hydroxyethylamino]ethoxy]-1H-indol-2-yl]propionate]: the EC50 in series [1] came out at 1.4 nM. Moreover, the Emax in series [1] (setting [3]) amounted to 81%.
Molecule `Cc1n[nH]c2cc(OCCNC[C@H](O)c3ccc(Cl)c(NS(C)(=O)=O)c3)ccc12` [Example 88, (R)-N-[5-[2-[2-(3-methylindazol-6-yloxy)ethylamino]-1-hydroxyethyl]-2-chlorophenyl]methanesulfonamide] had an EC50 in series [1] of 4.7 nM. Further, the Emax in series [1] (setting [3]) is 52%.
Molecule `Cc1c(C2CCCN(C(=O)OC(C)(C)C)C2)[nH]c2cc(OCCNC[C@H](O)c3cccc(NS(C)(=O)=O)c3)ccc12` (stereo partly drawn) [Example 75, (R)-N-[3-[2-[2-[2-(N′-t-butyloxycarbonylpiperidin-3-yl)-3-methyl-1H-indol-6-yloxy]ethylamino]-1-hydroxyethyl]phenyl]methanesulfonamide] displayed a concentration giving a half-maximal response (EC50) in series [1] of 4.4 nM. Besides, the Emax in series [1] (setting [3]) came out at 79%.
`Cc1c(-c2ccncc2)[nH]c2cc(OCCNC[C@H](O)c3cccc(NS(C)(=O)=O)c3)ccc12` [Example 74, (R)-N-[3-[1-hydroxy-2-[2-(3-methyl-2-pyridin-4-yl-1H-indol-6-yloxy)ethylamino]ethyl]phenyl]methanesulfonamide]: the EC50 in series [1] amounted to 3.9 nM. Besides, in series [1] (setting [3]), the Emax was determined as 71%.
The corresponding values for `CCc1c(-c2cccnc2)[nH]c2cc(OCCNC[C@H](O)c3cccc(NS(C)(=O)=O)c3)ccc12` [Example 73, (R)-N-[3-[2-[2-(3-ethyl-2-pyridin-3-yl-1H-indol-6-yloxy)ethylamino]-1-hydroxyethyl]phenyl]methanesulfonamide] are 3.5 nM and 75%.
`Cc1c(CCC(=O)N(C)C)[nH]c2cc(OCCNC[C@H](O)c3cccc(NS(C)(=O)=O)c3)ccc12` [Example 81]: in series [1], it took 2.8 nM to reach a half-maximal effect (EC50). For the same molecule, the Emax in series [1] (setting [3]) is 77%.
`Cc1c(C2CCCNC2)[nH]c2cc(OC[C@@H](O)NCCc3cccc(NS(C)(=O)=O)c3)ccc12` (stereo partly drawn) [Example 76, (R)-N-[3-[2-[1-hydroxy-2-(3-methyl-2-piperidin-3-yl-1H-indol-6-yloxy)ethylamino]ethyl]phenyl]methanesulfonamide]: in series [1], the midpoint of the response, the EC50, lay at 21 nM. Moreover, the “Intrinsic activity*” value in series [1] (setting [3]) came to 76%.
